This assay has as its target G_PROTEIN_RECEP_F1_2 domain-containing protein (Sus scrofa, UniProt I3LCE8).

Sequence of G_PROTEIN_RECEP_F1_2 domain-containing protein (I3LCE8 whole entry): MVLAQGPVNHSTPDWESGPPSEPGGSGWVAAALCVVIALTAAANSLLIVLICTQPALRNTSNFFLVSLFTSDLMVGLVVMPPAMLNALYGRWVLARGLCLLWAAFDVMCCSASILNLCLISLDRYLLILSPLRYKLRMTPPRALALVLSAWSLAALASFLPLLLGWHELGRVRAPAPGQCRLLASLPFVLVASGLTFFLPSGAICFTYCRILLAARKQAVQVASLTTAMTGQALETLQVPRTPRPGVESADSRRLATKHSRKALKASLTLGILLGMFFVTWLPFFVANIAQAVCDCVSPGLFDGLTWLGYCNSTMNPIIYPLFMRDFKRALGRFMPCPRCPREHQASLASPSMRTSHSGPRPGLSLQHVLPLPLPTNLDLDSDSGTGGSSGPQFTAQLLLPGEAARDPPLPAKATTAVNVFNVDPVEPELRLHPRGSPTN

`O=C(c1ccc(F)cc1)C1CCN(CCn2c(=O)[nH]c3ccccc3c2=O)CC1` [3-(2-{4-[(4-fluorophenyl)carbonyl]piperidin-1-yl}ethyl)-1,2,3,4-tetrahydroquinazoline-2,4-dione]: the Ki (usually the equilibrium dissociation constant of an inhibitor or competing ligand from its target) is greater than 10 µM.

The record behind these values is BindingDB's records for doi:10.1007/bf00178951 (Sandoz Pharma, 1994).
